The results in this text go back to patent US20120302614A1, “METHOD FOR IMPROVING CEREBRAL CIRCULATION OR TREATING A CEREBRAL BLOOD FLOW DISORDER” (OSAKA UNIVERSITY, priority 2007, published 2012).

The test system of test [1] is hippocampus (CA1/Schaffer collaterals) of Aβ40-injected mice. The test is described as follows: Long-term potentiation in hippocampal slices, Test Example 3. In kind it is in vivo, mouse. Particulars: Aβ40-injected mice with or without treatment. Here is the method: (§1) • Electrophysiology: Long term potentiation was measured as previously reported (Niisato K, Fujikawa A, Komai S, Shintani T, Watanabe E, Sakaguchi G, Katsuura G, Manabe T, Noda M: Age-dependent enhancement of hippocampal long-term potentiation and impairment of spatial learning through the Rho-associated kinase pathway in protein tyrosine phosphatase receptor type Z-deficient mice. J Neurosci 2005; 25:1081-1088). Transverse hippocampal slices (400 μm thick) were prepared from 5- to 10-week-old mice or from 13- to 31-week-old mice and placed in an interface-type holding chamber for at least 1 hr. […] For the analysis of EPSPs, the inventors measured their early rising phase in order to avoid contamination by voltage-dependent components as much as possible. […] The data are expressed as mean±SEM. […] Cerebral blood flow (CBF) was continuously monitored at the site of perfusion with a laser-Doppler probe positioned stereotaxically on the cortical surface and connected to a computerized data acquisition system. CBF values were expressed as percent increase relative to the resting level. Zero values for CBF were obtained after the heart was stopped by an overdose of isoflurane at the end of the experiment. • Effect of topical application of Aβ40 on functional hyperemia: The cranial window was first perfused with Ringer's solution, and CBF responses to whisker stimulation were recorded. […]

For test [2], the system named is Aβ injection model (Aβ 1-40 administered intracerebroventricularly). The test can be described thus: Morris water maze test in Aβ injection model, Test Example 1. In kind it is in vivo, ddY mouse. Particulars: oral administration for four weeks in advance of Aβ 1-40. Here is the method:
The therapeutic effect of olmesartan medoxomil in Aβ injection model and the dose dependency thereof were examined according to the following experimental schedule. [Experimental Schedule]: Prior to the experiment, 8-week old male ddY mice were administered olmesartan medoxomil (0.5 mg/kg/day, 1 mg/kg/day, 3 mg/kg/day or 6 mg/kg/day) or distilled water orally for four weeks (day −28 to −1). Then, Aβ 1-40 was administered to the mice intracerebroventricularly (day 0). (Although Aβ 1-40 was administered into one of the lateral ventricles in WO 2006/059777, Aβ 1-40 was administered in Test Example 1 to both lateral ventricles with an interval of one day between two administrations. Except for this point, Aβ 1-40 administration was performed in the same manner as in WO 2006/059777.) From one week thereafter, a behavioral test to evaluate cognitive function (Morris water maze test; Morris R et al., J Neuroscience Methods 1984, 11, 47-60) was performed (day 7 to 12). As a negative control, mice which had received oral administration of distilled water for four weeks were administered Aβ 40-1 intracerebroventricularly. The administration of olmesartan medoxomil or distilled water was continued until the end of the behavioral test. Measurements were performed as described below. • Hidden platform test: A platform is placed below the water surface of a water pool 150 cm in diameter filled with white water-colored. Mice are released into the water, and the time it takes them to reach the platform is measured. This trial is performed three times a day and for five consecutive days. As they learn, mice become able to reach the platform more quickly day by day. • Visible platform test: Mice are released into the water under such conditions that they can see the platform. The time it takes them to reach the platform is measured. • Probe test: The platform is removed, and mice are released and allowed to swim freely. Those mice with good learning/memory swim in the quadrant where the platform was located searching for the platform. The time they spent in that quadrant is measured. • Annnulus crossing: The number of times mice crossed the platform in the probe test is counted.

Test [3] relates to Aβ-injected mice. The test can be described thus: Cerebral blood flow response to whisker stimulation (functional hyperemia), Test Example 3. In kind it is in vivo, mouse. To be noted: Aβ-injected mice with or without treatment. How it is done:
as §1

Test [4] relates to Aβ-injected mice. The test is described as follows: Cerebrovascular autoregulation (CBF versus MAP), Test Example 3. In kind it is in vivo, mouse. Particulars: Aβ-injected mice with or without treatment. Here is the method:
as §1

“Also recorded” adds a separate entry of the source.

Take `CCCc1nc(C(C)(C)O)c(C(=O)O)n1Cc1ccc(-c2ccccc2-c2nnn[nH]2)cc1` [olmesartan, 4-(1-hydroxy-1-methylethyl)-2-propyl-1-[4-[2-(tetrazol-5-yl)phenyl]phenyl]methylimidazole-5-carboxylic acid]: the “long-term potentiation (LTP) in hippocampus, field potential slope after tetanic stimulation” value in test [1] is reported as “recovery of LTP”. Also, in test [2], the “cognitive impairment (spatial memory and learning) in Morris water maze test, overall” value is recorded as “ameliorated”. Besides, the “Aβ-induced impairment in neurovascular coupling (CBF response to whisker stimulation)” value in test [3] is reported as “improved; also recorded: recovery of neurovascular coupling”. The “cerebrovascular autoregulation impaired by Aβ (relation between CBF and MABP)” value in test [4] was “recovered”.
